Test system: LG0703-F948-PDC spheroids with HUVEC/MSC, viability
Assay: Anticancer human tumor LG0703-F948-PDC patient-derived lung adenocarcinoma cell line growth inhibition [IpAb]
Settings: for IC50: curve of first compound; for viability, T/C: stronger effect = lower value
Procedure, shortened: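 Combinations with ipatasertib or abemaciclib were tested on tumour spheroids holding HUVEC (25%) and MSC (15%) alongside 60% malignant cells. Top concentration was at or near clinical Cmax (10 microM if undefined), descending in half-log steps.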

[1] = second compound 0.1 µM, first compound 0.0316 µM
[2] = second compound 0.1 µM, first compound 0.1 µM
[3] = second compound 0.1 µM, first compound 0.316 µM
[4] = second compound 0.1 µM, first compound 1 µM
[5] = second compound 0.316 µM, first compound 0.0316 µM
[6] = second compound 0.316 µM, first compound 0.1 µM
[7] = second compound 0.316 µM, first compound 0.316 µM
[8] = second compound 0.316 µM, first compound 1 µM
[9] = second compound 1 µM, first compound 0.0316 µM
[10] = second compound 1 µM, first compound 0.1 µM
[11] = second compound 1 µM, first compound 0.316 µM
[12] = second compound 1 µM, first compound 1 µM
[13] = second compound 3.16 µM, first compound 0.0316 µM
[14] = second compound 3.16 µM, first compound 0.1 µM
[15] = second compound 3.16 µM, first compound 0.316 µM
[16] = second compound 3.16 µM, first compound 1 µM
[17] = second compound 10 µM, first compound 0.0316 µM
[18] = second compound 10 µM, first compound 0.1 µM
[19] = second compound 10 µM, first compound 0.316 µM
[20] = second compound 10 µM, first compound 1 µM
[21] = second compound 0.1 µM, first compound 3.16 µM
[22] = second compound 0.1 µM, first compound 10 µM
[23] = second compound 0.316 µM, first compound 3.16 µM
[24] = second compound 0.316 µM, first compound 10 µM
[25] = second compound 1 µM, first compound 3.16 µM
[26] = second compound 1 µM, first compound 10 µM
[27] = second compound 3.16 µM, first compound 3.16 µM
[28] = second compound 3.16 µM, first compound 10 µM
[29] = second compound 10 µM, first compound 3.16 µM
[30] = second compound 10 µM, first compound 10 µM
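Also: spheroids exposed to compounds for seven days before readout.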
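For viability, T/C in this document: T/C percent relative to DMSO vehicle wells set as 100% viability.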

With CC(=O)c1c(C)c2cnc(Nc3ccc(N4CCNCC4)cn3)nc2n(C2CCCC2)c1=O + CC(C)NCC(C(=O)N1CCN(c2ncnc3c2C(C)CC3O)CC1)c1ccc(Cl)cc1 the IC50 (second compound 0.1 µM) was > 300 nM, the IC50 (second compound 0.316 µM) was > 300 nM and the IC50 (second compound 1 µM) was 2.55 nM. For the same compound, the IC50 (second compound 3.16 µM) was < 0.949 nM, the IC50 (second compound 10 µM) was < 0.949 nM and the viability, T/C (second compound 0.1 µM, first compound 0.000949 µM) was 86.8%. The viability, T/C (second compound 0.1 µM, first compound 0.003 µM) was 86%, the viability, T/C (second compound 0.1 µM, first compound 0.00949 µM) was 84.8% and the viability, T/C (second compound 0.1 µM, first compound 0.03 µM) was 73.3%. It also gave a viability, T/C (second compound 0.1 µM, first compound 0.0949 µM) of 80.4%, a viability, T/C (second compound 0.1 µM, first compound 0.3 µM) of 73.4% and a viability, T/C (second compound 0.316 µM, first compound 0.000949 µM) of 70.5%. It also gave a viability, T/C (second compound 0.316 µM, first compound 0.003 µM) of 69.7%, a viability, T/C (second compound 0.316 µM, first compound 0.00949 µM) of 60.5% and a viability, T/C (second compound 0.316 µM, first compound 0.03 µM) of 62.5%. The viability, T/C (second compound 0.316 µM, first compound 0.0949 µM) was 58.4%, the viability, T/C (second compound 0.316 µM, first compound 0.3 µM) was 60.3% and the viability, T/C (second compound 1 µM, first compound 0.000949 µM) was 54.6%. The viability, T/C (second compound 1 µM, first compound 0.003 µM) was 53.1%, the viability, T/C (second compound 1 µM, first compound 0.00949 µM) was 42.4% and the viability, T/C (second compound 1 µM, first compound 0.03 µM) was 41.8%. For the same compound, the viability, T/C (second compound 1 µM, first compound 0.0949 µM) was 42.1%, the viability, T/C (second compound 1 µM, first compound 0.3 µM) was 43.9% and the viability, T/C (second compound 3.16 µM, first compound 0.000949 µM) was 50.1%. The viability, T/C (second compound 3.16 µM, first compound 0.003 µM) was 41.8%, the viability, T/C (second compound 3.16 µM, first compound 0.00949 µM) was 41.7% and the viability, T/C (second compound 3.16 µM, first compound 0.03 µM) was 42.2%. For the same compound, the viability, T/C (second compound 3.16 µM, first compound 0.0949 µM) was 34.9%, the viability, T/C (second compound 3.16 µM, first compound 0.3 µM) was 33.5% and the viability, T/C (second compound 10 µM, first compound 0.000949 µM) was 41.5%. The viability, T/C (second compound 10 µM, first compound 0.003 µM) was 37.9%, the viability, T/C (second compound 10 µM, first compound 0.00949 µM) was 43.5% and the viability, T/C (second compound 10 µM, first compound 0.03 µM) was 40%. It also gave a viability, T/C (second compound 10 µM, first compound 0.0949 µM) of 33.5% and a viability, T/C (second compound 10 µM, first compound 0.3 µM) of 27.5%.

Compound COc1c(OCCCN2CCOCC2)ccc2c3n(c(=NC(=O)c4cnc(N)nc4)nc12)CCN3 + CC(C)NCC(C(=O)N1CCN(c2ncnc3c2C(C)CC3O)CC1)c1ccc(Cl)cc1 has an IC50 (second compound 0.1 µM) of 26.6 nM, an IC50 (second compound 0.316 µM) of 13.6 nM and an IC50 (second compound 1 µM) of 3.91 nM. For the same compound, the IC50 (second compound 3.16 µM) was < 3.16 nM, the IC50 (second compound 10 µM) was < 3.16 nM and the viability, T/C (second compound 0.1 µM, first compound 0.00316 µM) was 84.6%. For the same compound, the viability, T/C (second compound 0.1 µM, first compound 0.01 µM) was 70.1%, the viability, T/C [1] was 47% and the viability, T/C [2] was 21.8%. For the same compound, the viability, T/C [3] was 6.53%, the viability, T/C [4] was 4.98% and the viability, T/C (second compound 0.316 µM, first compound 0.00316 µM) was 66.5%. The viability, T/C (second compound 0.316 µM, first compound 0.01 µM) was 51.5%, the viability, T/C [5] was 39.8% and the viability, T/C [6] was 15.7%. For the same compound, the viability, T/C [7] was 5.88%, the viability, T/C [8] was 3.95% and the viability, T/C (second compound 1 µM, first compound 0.00316 µM) was 52.1%. For the same compound, the viability, T/C (second compound 1 µM, first compound 0.01 µM) was 42.5%, the viability, T/C [9] was 30.1% and the viability, T/C [10] was 11.3%. The viability, T/C [11] was 5.86%, the viability, T/C [12] was 4.35% and the viability, T/C (second compound 3.16 µM, first compound 0.00316 µM) was 41.9%. It also gave a viability, T/C (second compound 3.16 µM, first compound 0.01 µM) of 35.7%, a viability, T/C [13] of 19.8% and a viability, T/C [14] of 11.6%. For the same compound, the viability, T/C [15] was 4.56%, the viability, T/C [16] was 4.47% and the viability, T/C (second compound 10 µM, first compound 0.00316 µM) was 38.6%. For the same compound, the viability, T/C (second compound 10 µM, first compound 0.01 µM) was 28.4%, the viability, T/C [17] was 25.3% and the viability, T/C [18] was 7.44%. It also gave a viability, T/C [19] of 3.76% and a viability, T/C [20] of 2.45%.

Work on Cc1nc(NC(=O)N2CCCC2C(N)=O)sc1-c1ccnc(C(C)(C)C(F)(F)F)c1 (stereo not given) + CC(C)NCC(C(=O)N1CCN(c2ncnc3c2C(C)CC3O)CC1)c1ccc(Cl)cc1 yielded an IC50 (second compound 0.1 µM) of 929 nM, an IC50 (second compound 0.316 µM) of 366 nM and an IC50 (second compound 1 µM) of 64.8 nM. The IC50 (second compound 3.16 µM) was < 31.6 nM, the IC50 (second compound 10 µM) was < 31.6 nM and the viability, T/C [1] was 77.9%. The viability, T/C [2] was 76.6%, the viability, T/C [3] was 64.3% and the viability, T/C [4] was 50.7%. The viability, T/C [21] was 22.4%, the viability, T/C [22] was 2.44% and the viability, T/C [5] was 59.6%. For the same compound, the viability, T/C [6] was 60.8%, the viability, T/C [7] was 52.1% and the viability, T/C [8] was 36.5%. For the same compound, the viability, T/C [23] was 21.1%, the viability, T/C [24] was 2.34% and the viability, T/C [9] was 54%. It also gave a viability, T/C [10] of 46.7%, a viability, T/C [11] of 39.7% and a viability, T/C [12] of 32.1%. For the same compound, the viability, T/C [25] was 13.8%, the viability, T/C [26] was 1.78% and the viability, T/C [13] was 45.5%. The viability, T/C [14] was 39.7%, the viability, T/C [15] was 35.8% and the viability, T/C [16] was 24.1%. For the same compound, the viability, T/C [27] was 13.1%, the viability, T/C [28] was 2.03% and the viability, T/C [17] was 39.5%. The viability, T/C [18] was 33.4%, the viability, T/C [19] was 35.9% and the viability, T/C [20] was 19%. The viability, T/C [29] was 12.3% and the viability, T/C [30] was 1.55%.

With Cn1nccc1Nc1nccc(-c2ccn(C(CO)c3ccc(Cl)c(F)c3)c(=O)c2)n1 (stereo not given) + CC(C)NCC(C(=O)N1CCN(c2ncnc3c2C(C)CC3O)CC1)c1ccc(Cl)cc1 the IC50 (second compound 0.1 µM) was 502 nM, the IC50 (second compound 0.316 µM) was 97 nM and the IC50 (second compound 1 µM) was < 31.6 nM. The IC50 (second compound 3.16 µM) was < 31.6 nM, the IC50 (second compound 10 µM) was < 31.6 nM and the viability, T/C [1] was 67.3%. For the same compound, the viability, T/C [2] was 66.3%, the viability, T/C [3] was 49.8% and the viability, T/C [4] was 39.7%. It also gave a viability, T/C [21] of 50.3%, a viability, T/C [22] of 37.6% and a viability, T/C [5] of 64.7%. The viability, T/C [6] was 49.4%, the viability, T/C [7] was 36.5% and the viability, T/C [8] was 28%. The viability, T/C [23] was 32.5%, the viability, T/C [24] was 27.1% and the viability, T/C [9] was 45%. It also gave a viability, T/C [10] of 39.8%, a viability, T/C [11] of 21.7% and a viability, T/C [12] of 15.3%. The viability, T/C [25] was 12.3%, the viability, T/C [26] was 16% and the viability, T/C [13] was 38.2%. For the same compound, the viability, T/C [14] was 33%, the viability, T/C [15] was 16.4% and the viability, T/C [16] was 9.61%. For the same compound, the viability, T/C [27] was 9.49%, the viability, T/C [28] was 5.88% and the viability, T/C [17] was 32.5%. It also gave a viability, T/C [18] of 22.6%, a viability, T/C [19] of 29.5% and a viability, T/C [20] of 6.93%. It also gave a viability, T/C [29] of 4.16% and a viability, T/C [30] of 3.23%.
